The source of these data is US20080280934A1, “Method of Preparing Porphyrin Derivatives, Porphyrin Derivatives, Uses Thereof and Pharmaceutical Compositions” (priority 2003, published 2008).

A short description of data set [1]: solubility of the purified porphyrin in demineralized water. The note with it: at about pH 8, demineralized water. It is filed as physicochemical. How it is done: A solution of 0.61 gram of 6a in 25 ml tetrahydrofuran (THF) was mixed with a solution of 0.20 gram sodium hydroxide in 120 ml of water and refluxed during 1 hour. The reaction was followed with silicagel thin layer chromatography using THF as the eluens. When the reaction is finished THF and water were removed by distillation under reduced pressure until the volume was approximately 20 ml. The crude product was purified over 10 grams of CM Sephadex cation exchanger (bead size 40-120 μm) from Sigma-Aldrich, which was first treated with 1 M hydrochloric acid and then washed with demineralized water. First the porphyrin solution was carried onto the sephadex gel, and washed with demineralized water to remove salts. The purified porphyrin was eluted with 1% ammoniumhydroxide in water. The resulting brown solution was evaporated to dryness, then demineralized water was added and again the solution was evaporated to dryness to remove traces of ammonia. […] Yet this solubility of about 0.5 mg/ml at about pH 8 is better than for other porphyrin compounds such as MTHPC which is currently used in photodynamic therapy. 0.45 grams (77%) of the dicarboxylic acid 7a was obtained.

Data set [2] can be described thus: maximum absorption wavelength (λmax). The format is physicochemical. The conditions noted are these: for maximum absorption wavelength: in both dichloromethane and methanol; for λmax / absorption maximum: solvent not stated. The method, then:
Refluxing of pure 4a in trichloroacetic acid at 175° C. leads surprising to a new peri-annulated quinoporphyrin-product (5a). The oxidizing agent performing the final oxidation (closing the heterocyclic ring of the quinoline-ring system) to result in the new product is oxygen from the air, similar to what is known for other reactions involving porphyrins (see Woodward, J., Am.. Chem. Soc.. (1960) […]., pp. 3800-3802). The λmax of this new compound 5a is, compared with mesoporphyrindimethylester 1, shifted towards the red (respective values for λmax are: 567 nm and 638 nm).
If desired the metal ion used (here nickel) may be removed in a conventional manner (5 min. conc. sulphuric acid at room temperature, the time required to dissolve completely), yielding the corresponding compounds 6a-6d. Noteworthy are the maximum absorption wavelengths for 6a, 6b, 6c and 6d which are 681, 688, 688 and 683 nm respectively (in both dichloromethane and methanol),which are very long for entirely unsaturated porphyrin ring systems. Benzylation of the quinoline-ring system nitrogen with benzyl bromide/ potassium iodide leads to formation of a cationic benzylated quinoporphyrin (18 N-benzylquinolinium[4,4a,5,6-efg]-annulated mesoporphyrin dimethylester with an absorption maximum at 755 nm. Hydrolysation of this compound yields N-benzylquinolinium[4,4a,5,6-efg]-annulated mesoporphyrin (19).

With “quino[4,4a,5,6-efg]-annulated 7-demethyl-8-deethylmesoporphyrin [7a]”, the solubility result in data set [1] is “about 0.5 mg/ml”.

Turning to “2′-methoxycarbonylquino[4,4a,5,6-qrs]-annulated 18-demethyl-17-de[2-(methoxycarbonyl)ethyl]mesoporphyrin dimethylester [6c]”, the maximum absorption wavelength in data set [2] is 688 nm.

In data set [2], “quino[4,4a,5,6-efg]-annulated 7-demethyl-8-deethylmesoporphyrin dimethylester [6a]” displayed a maximum absorption wavelength of 681 nm.

In the case of “quino[4,4a,5,6-efg]-annulated 7-demethyl-8-deethylmesoporphyrin dimethylester nickel (II) complex [5a]”, the “λmax / absorption maximum” value in data set [2] worked out at 638 nm.

Consider “2′-methoxycarbonylquino[4,4a,5,6-jkl]-annulated 12-demethyl-13-de[2-(methoxycarbonyl)ethyl]mesoporphyrin dimethylester [6b]”, for which the maximum absorption wavelength in data set [2] was found to be 688 nm.

In the case of “mesoporphyrin dimethylester [compound 1, reference compound]”, the “λmax / absorption maximum” value in data set [2] was 567 nm.

As to “N-benzylquinolinium[4,4a,5,6-efg]-annulated mesoporphyrin dimethylester [compound 18]”, the “λmax / absorption maximum” value in data set [2] stood at 755 nm.

For “quino[4,4a,5,6-abt]-annulated 2-demethyl-3-deethylmesoporphyrin dimethylester [6d]”, in data set [2], the maximum absorption wavelength is on record as 683 nm.
